Experimental data published in patent US20040019018A1, “Rigid pyrrolidone modulators of pkc” (priority 2003, published 2004).

System: PKC catalytic subunit
Assay: Translocation of PKC catalytic subunit to the membrane fraction in human fibroblasts (Western blot)
Format: cell-based
Conditions: 15 min treatment, preliminary results
Procedure: A growing list of evidence implicated that protein kinase C (PKC) activation can increase the rate of the non-amyloidogenic, i.e. α-secretase processing in vitro.
Human fibroblasts were grown to confluence in 100 mm tissue culture dishes. On the day of the experiment, cells were rinsed twice with serum-free Dulbecco's modified Eagle's medium (DMEM) and incubated in the same medium for 2 hours. Cells were treated with the drugs above, or DMSO vehicle as control, for 15 min. The cells were then rinsed twice with ice-cold phosphate buffered saline (PBS), scraped in PBS, and collected by centrifugation. The pellets were suspended in homogenization buffer containing: 20 mM Tris-HCl, pH 7.5, 2 mM EDTA, 2 mM EGTA, 5 mM DTT, 0.32 M sucrose, 2 mM PMSF, […] aprotinin, and 20 µg/ml leupeptin. Homogenates were immersed in liquid nitrogen thawed, and centrifuged at 12,000 g for 20 min, and supernatants were used as the cytosolic fraction (C). The pellets were homogenized in the same buffer containing 1.0% Triton X-100, incubated on ice for 45 min, and centrifuged at 12,000 g for 30 min and the supernatants were used as the membrane fractions (M). After protein determination, equal amounts of proteins (approx. […]) were mixed with electrophoresis buffer, boiled for 5 min, and separated on 8% SDS-PAGE, and electrophoretically transferred to PVDF membranes. […]

CCCCCCCCC#Cc1ccc2c(c1)C(C)(C(C)C)C1C(=O)NC(CO)C21 [Compound 1, (3S, 8R, 9S, 10S)-6-(dec-1′-ynyl)-3-hydroxymethyl-8-isopropyl-8-methyl-3,3a,8,8a-tetrahydro-2H-2-aza-cyclopenta[a]inden-1-one]
translocation of PKC catalytic subunit from the cytosolic to the membrane fractions (activation): able to cause the translocation
